What follows are compounds tested on M. tuberculosis isolates and drug resistance strains.
Format: cell-based, Mycobacterium tuberculosis

Row | Compound | In vitro activity (result in words)
1 | O=[N+]([O-])c1ccc(C=NNc2nc3ccc(OC(F)(F)F)cc3s2)s1 [Compound 3j, 5-nitro-2-thiophenecarbaldehyde 2-(6-trifluoromethoxy-1,3-benzothiazole-2-yl)hydrazone] | good in vitro activity
2 | O=C(NNc1nc2ccc(OC(F)(F)F)cc2s1)c1ccc([N+](=O)[O-])o1 [Compound 4e, N′2-(6-trifluoromethoxy-1,3-benzothiazol-2-yl)-5-nitro-2-furanecarbohydrazide] | good in vitro activity
3 | O=C(Nc1nc2ccc(NC(=O)c3ccc([N+](=O)[O-])o3)cc2s1)c1ccc(F)cc1 [Compound 6f, N2-{2-[(4-fluorobenzoyl)amino]-1,3-benzothiazol-6-yl}-5-nitrofuramide] | good in vitro activity
4 | O=C(Nc1nc2ccc(NC(=O)c3ccc([N+](=O)[O-])o3)cc2s1)c1ccc(Cl)cc1 [Compound 6g, N2-{2-[(4-chlorobenzoyl)amino]-1,3-benzothiazol-6-yl}-5-nitrofuramide] | good in vitro activity
5 | O=C(Nc1ccc2nc(NC(=O)c3ccc(F)cc3F)sc2c1)c1ccc([N+](=O)[O-])o1 [Compound 6i, N2-{2-[(2,4-difluorobenzoyl)amino]-1,3-benzothiazol-6-yl}-5-nitrofuramide] | good in vitro activity
6 | O=C(Nc1nc2ccc(NC(=O)c3ccc([N+](=O)[O-])o3)cc2s1)c1cnccn1 [Compound 6p, N2-(6-{[(5-nitro-2-furyl)carbonyl]amino}-1,3-benzothiazol-2-yl)-2-pyrazinecarboxamide] | good in vitro activity
7 | O=C(Nc1ccc2nc(NC(=O)c3ccc([N+](=O)[O-])o3)sc2c1)c1ccc([N+](=O)[O-])o1 [Compound 8a, N2-(2-{[(5-nitro-2-furyl)carbonyl]amino}-1,3-benzothiazol-6-yl}-5-nitro-2-furamide] | good in vitro activity
8 | N2-(2-{[(E)-3-(4-chlorophenyl)-2-propenoyl]amino}-1,3-benzothiazol-6-yl)-5-nitro-2-furamide [Compound 6w] | good in vitro activity

Reference: patent US9949970B2, “Synthesis of new benzothiazole derivatives as potential anti-tubercular agents” (priority 2010, dated 2018)
